Test results: patent US9617530B2, “Acetyl-CoA carboxylase herbicide resistant sorghum” (Kansas State University Research Foundation, Inc., priority 2007, dated 2017)

Legend:
Bol-71 = experiment: Mode of inheritance greenhouse spray test, wild parent; format: in vivo, sorghum; conditions: 0.045 lb ai fluazifop-P acre^-1 at 14 days after planting, n=3
Method: (§1) The mode of inheritance of herbicide tolerance was determined by planting seeds of Bol-71, F1 generation of cross ATx623×Bol-71, and Pioneer 84G62 (herbicide susceptible control) in flats containing MetroMix 360 potting soil in a greenhouse using a randomized complete block design (n=3). The plants were sprayed with 0.045 lb ai fluazifop-P acre^−1 at 14 days after planting. Pioneer 84G62 died between 12-16 days after spraying.

[1] = test system: Pioneer 84G62 (herbicide susceptible control); experiment: Mode of inheritance greenhouse spray test, susceptible control; format: in vivo, sorghum; conditions: 0.045 lb ai fluazifop-P acre^-1 at 14 days after planting, n=3
Method: as §1

[2] = test system: F1 generation of cross ATx623×Bol-71; experiment: Mode of inheritance greenhouse spray test, F1 hybrid; format: in vivo, sorghum; conditions: 0.045 lb ai fluazifop-P acre^-1 at 14 days after planting, n=3
Method: as §1

[3] = test system: Tx2783, an herbicide susceptible elite sorghum genotype; experiment: Greenhouse herbicide selection, spray on susceptible elite check; format: in vivo, Sorghum bicolor (L.) Moench
From the text: Seeds of 83 wild sorghum populations from Bolivia were planted in a greenhouse for comparison with Tx2783, an herbicide susceptible elite sorghum genotype. Wild sorghum genotypes were planted in flats containing MetroMix 360 potting soil (Sun Gro) and greenhouse grown. Tx2783 was planted with the wild accessions in each flat for comparison. In one selection using clethodim, plants were sprayed with 0.09 lb ai clethodim acre^−1 at 18 days after planting. […] In one selection using fluoazifop-P, flats with Tx2783 and wild accessions were sprayed with a rate of 0.12 lb ai fluazifop-P acre^−1 at 18 days after planting and with 0.36 lb ai fluazifop-P acre^−1 at 32 days after planting. […] In a third experiment, plants were sprayed with a rate of 0.05 lb ai quizalofop acre^−1 at 18 days after planting and with 0.11 lb ai quizalofop acre^−1 at 32 days after planting.

SMILES | herbicide damage (Bol-71) | time of plant death after spraying [1] | herbicide damage [2] | plant outcome after spraying ([3]; 0.12 lb ai fluazifop-P acre^-1 at 18 days and 0.36 lb ai acre^-1 at 32 days after planting) | plant outcome after spraying ([3]; 0.05 lb ai quizalofop acre^-1 at 18 days and 0.11 lb ai acre^-1 at 32 days after planting)
C[C@@H](Oc1ccc(Oc2ccc(C(F)(F)F)cn2)cc1)C(=O)O [fluazifop-P] | no herbicide damage | 12-16 days after spraying | no herbicide damage | died | –
CC(Oc1ccc(Oc2cnc3cc(Cl)ccc3n2)cc1)C(=O)O (centres unmarked) [quizalofop] | – | – | – | – | died
